#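 Protocol summary: plate cells (96-well), add compound at 5 concentrations, incubate 48 h, interpolate endpoints linearly. Here, GI50 denotes the concentration required for 50% inhibition of growth.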 Active and inactive are the calls of the source. Rule as the data show it: active = GI50 up to about 1.1 µM and inactive = higher. Non-standard residues stand in square brackets, D forms with d. Residues, ends and D or L forms follow the SMILES beside them. ξ: configuration not given here. *: point of attachment. NMeY = CN[C@@H](Cc1ccc(O)cc1)C(=O)O; Cbz = O=C(OCc1ccccc1)*; ξA = CC(N)C(=O)O
# How the values were obtained:
# Assay in all cases: inhibition of tumour cell growth, NCI panel, 48 h
# [1] = tested on: SNB-19
# [2] = tested on: NCI-H226
# [3] = tested on: K562
# [4] = tested on: BT-549
# [5] = tested on: CAKI-1
# [6] = tested on: OVCAR-8
# [7] = tested on: LOX IMVI
# [8] = tested on: U-251
# [9] = tested on: MCF7
# [10] = tested on: SN12C
# [11] = tested on: RXF 393
# [12] = tested on: PC-3
# [13] = tested on: NCI/ADR-RES
# [14] = tested on: OVCAR-5
# [15] = tested on: NCI-H460
# [16] = tested on: HCT-15
# [17] = tested on: TK-10
# [18] = tested on: DU-145
# [19] = tested on: CCRF-CEM
SMILES,GI50 [1],GI50 [2],GI50 [3],GI50 [4],GI50 [5],GI50 [6],GI50 [7],GI50 [8],GI50 [9],GI50 [10],GI50 [11],GI50 [12],GI50 [13],GI50 [14],GI50 [15],GI50 [16],GI50 [17],GI50 [18],GI50 [19]
CCOC(=O)c1cc(C2(O)CCN(Cc3ccccc3)C2=O)c(-c2cc(C)no2)[nH]1 (stereo not drawn),81.1 µM (inactive),55.7 µM (inactive),27 µM (inactive),66.2 µM (inactive),32.8 µM (inactive),37.3 µM (inactive),29.5 µM (inactive),44.7 µM (inactive),47.4 µM (inactive),69 µM (inactive),13.3 µM (inactive),42.4 µM (inactive),38.5 µM (inactive),61.4 µM (inactive),32.4 µM (inactive),71.3 µM,67.1 µM (inactive),88.9 µM (inactive),29 µM (inactive)
O=[N+]([O-])c1ccc(Oc2c(Cl)cc(S(=O)(=O)N/C(=N\O)Nc3ccc(Cl)cc3)cc2Cl)cc1,15.2 µM (inactive),14 µM (inactive),13.8 µM (inactive),12 µM (inactive),5.57 µM (inactive),12.6 µM (inactive),11.1 µM (inactive),13 µM (inactive),7 µM (inactive),12.5 µM (inactive),13.5 µM (inactive),10.4 µM (inactive),12.6 µM (inactive),7.66 µM (inactive),11.6 µM (inactive),11.2 µM,11.2 µM (inactive),15.1 µM (inactive),8.22 µM (inactive)
CC(=O)C(=Cc1ccc(C=C(C(C)=O)C(C)=O)cc1)C(C)=O,2.1 µM (inactive),3.23 µM (inactive),0.286 µM (active),2.05 µM (inactive),1.74 µM (inactive),2.05 µM (inactive),0.57 µM (active),1.79 µM (inactive),1.87 µM (inactive),1.63 µM (inactive),1.9 µM (inactive),1.9 µM (inactive),2.28 µM (inactive),2.79 µM (inactive),2.59 µM (inactive),0.977 µM,2.22 µM (inactive),3.81 µM (inactive),0.193 µM (active)
COc1ccc(C[C@@H](C(=O)NCC(N)=O)N(C)C(=O)[C@@H]2CCCN2C(=O)[C@H](CC(C)C)NC(=O)C(C)NC(=O)OCc2ccccc2)cc1 (stereo partly drawn) (Cbz-[ξA]LP[NMeY](Me)G-NH2),> 100 µM (inactive),> 100 µM (inactive),> 100 µM (inactive),> 100 µM (inactive),> 100 µM (inactive),> 100 µM (inactive),> 100 µM (inactive),> 100 µM (inactive),> 100 µM (inactive),> 100 µM (inactive),> 100 µM (inactive),> 100 µM (inactive),> 100 µM (inactive),> 100 µM (inactive),> 100 µM (inactive),> 100 µM,> 100 µM (inactive),> 100 µM (inactive),> 100 µM (inactive)
CC(C)(C)C(=O)CC1(O)C=C(O)C(O)(CC(=O)C(C)(C)C)O1 (stereo not drawn),36.8 µM (inactive),18.3 µM (inactive),54.8 µM (inactive),66.4 µM (inactive),13.6 µM (inactive),23.6 µM (inactive),12.5 µM (inactive),36.8 µM (inactive),24.8 µM (inactive),14.7 µM (inactive),1.84 µM (inactive),44.8 µM (inactive),20.9 µM (inactive),> 100 µM (inactive),10.1 µM (inactive),8.77 µM,82.2 µM (inactive),50.2 µM (inactive),6.46 µM (inactive)
S=C1CSc2c(ccc3ccccc23)N1,> 100 µM (inactive),> 100 µM (inactive),> 100 µM (inactive),> 100 µM (inactive),> 100 µM (inactive),> 100 µM (inactive),> 100 µM (inactive),> 100 µM (inactive),> 100 µM (inactive),> 100 µM (inactive),35.9 µM (inactive),> 100 µM (inactive),> 100 µM (inactive),> 100 µM (inactive),> 100 µM (inactive),> 100 µM,> 100 µM (inactive),> 100 µM (inactive),> 100 µM (inactive)
C=C(C(=O)O[C@H]1C(=O)C2=C(C)CCC3C(=C)C(=O)O[C@@H]3C2[C@]1(C)O)C1CC[C@]2(C)CCCC(=C)[C@H]2C1 (stereo partly drawn),13.1 µM (inactive),17.1 µM (inactive),6.11 µM (inactive),5.04 µM (inactive),8.71 µM (inactive),4.36 µM (inactive),3.18 µM (inactive),4.94 µM (inactive),3.32 µM (inactive),2.48 µM (inactive),0.0246 µM (active),5.45 µM (inactive),7.38 µM (inactive),17.7 µM (inactive),3.16 µM (inactive),3.48 µM,2.55 µM (inactive),4.72 µM (inactive),< 0.01 µM (active)
